Patent US11491155B2, “Salt of a pyrimido[6,1-A]isoquinolin-4-one compound” (VERONA PHARMA PLC, priority 2015, dated 2022)
Counter-ions that a name gives are not always drawn.

Experiments:
Format in all cases: physicochemical
[1] = Intrinsic dissolution of compressed tablet, pH 7.0, 37° C. (Sirius inForm); conditions: for Mass of salt (μg) dissolved after 2 hours, Average / Mass of salt (μg) dissolved after 2 hours, Test 1 / Mass of salt (μg) dissolved after 2 hours, Test 2: pH 7.0, 0.15 M NaCl, 37° C.
How it was run: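 Compressed 3 mm tablet (~10 mg, 100 kg load), one face exposed, dissolved in pH 7.0 aqueous medium (0.15 M NaCl, 0.01 M acetate/phosphate buffer) at 37° C., stirred at 100 rpm for 2 h. UV absorbance (<1.3) converted to dissolved weight via pH-dependent molar extinction coefficients.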

[2] = Behaviour to humidity by Gravimetric Vapour Sorption (GVS); conditions: for Behaviour to humidity: GVS, 0-90% humidity, 25° C.; for water adsorbed: up to 90% humidity
Method: Gravimetric Vapour Sorption—Sorption isotherms were obtained using a Hiden Isochema moisture sorption analyser (model IGAsorp), controlled by IGAsorp Systems Software V6.50.48. The sample was maintained at a constant temperature (25° C.) by the instrument controls. The humidity was controlled by mixing streams of dry and wet nitrogen, with a total flow of 250 ml·min^−1. The instrument was verified for relative humidity content by measuring three calibrated Rotronic salt solutions (10-50-88%). The weight change of the sample was monitored as a function of humidity by a microbalance (accuracy+/−0.005 mg). A defined amount of sample was placed in a tared mesh stainless steel basket under ambient conditions. A full experimental cycle typically consisted of three scans (sorption, desorption and sorption) at a constant temperature (25° C.) and 10% RH intervals over a 0-90% range (60 minutes for each humidity level).
(§1) The nature of the hydration and a preliminary examination of salt robustness/polymorphism was assessed by thermal manipulation using ThermoGravimetric Analysis (TGA) and Gravimetric Vapor Soprtion (GVS).

[3] = Thermal manipulation (isothermal 105° C., thermal cycle; TGA/DSC/XRPD)
Method: Differential Scanning calorimetry (DSC)—DSC data were collected on a PerkinElmer Pyris 4000 DSC equipped with a 45 position sample holder. The instrument was verified for energy and temperature calibration using certified indium. A predefined amount of the sample, 0.5-3.0 mg, was placed in a pin holed aluminium pan and heated at 20° C.·min^−1 from 30 to 350° C., or varied as experimentation dictated. A purge of dry nitrogen at 60 ml·min^−1 was maintained over the sample. The instrument control, data acquisition and analysis were performed with Pyris Software v9.0.1.0203.
Thermo-Gravimetric Analysis (TGA)—TGA data were collected on a PerkinElmer Pyris 1 TGA equipped with a 20 position auto-sampler. The instrument was calibrated using a certified weight and certified Alumel and Perkalloy for temperature. A predefined amount of the sample, 1-5 mg, was loaded onto a pre-tared aluminium crucible and was heated at 20° C.·min^−1 from ambient temperature to 400° C. A nitrogen purge at 20 ml·min^−1 was maintained over the sample. The instrument control, data acquisition and analysis were performed with Pyris Software v9.0.1.0203.
as §1

[4] = Stability assessment of RPL554 and salts: lactose powder blends (70° C., seven days); conditions: after storage at both room and elevated (70° C.) temperatures, 7 days
Method: A validated HPLC method (Onyx-Scientific, Final product testing monograph for RPL554) for the determination of chemical purity by HPLC was used.
The following chromatography conditions were used: Column: Waters X Bridge phenyl, 3.5 μm, 150×4.6 mm, (Part number 186003335); Diluent: Acetonitrile:Water (50:50, v/v); Mobile Phase: A—Purified Water:Trifluoroacetic acid (100:0.1); B—Acetonitrile:Trifluoroacetic acid (100:0.1); Flow Rate: 1.0 mL/min; Injection Volume: 10 μl; Detection: UV @ 254 nm; Column Temperature: 30° C.; Post Run: 5 min; Gradient: [Time (min): % A:% B]: [0: 95:5], [2: 95:5]; [15: 5:95], [20: 5:95], [22: 95:5].
Samples of 1% w/w RPL554 free base or salt variants: lactose blends were prepared and stored at elevated temperature (70° C.) for seven days, control samples were stored at ambient conditions and protected from light on the laboratory bench. All samples (approximately 0.5 g) were accurately weighed into screw cap glass scintillation vials (20 mL). For storage at elevated temperature samples were placed in an oven at 70° C. protected from light. Control sample vials were capped, protected from light and stored on the bench for 7 days.
In addition, to the RPL554 and salt variant blends, samples of lactose alone were also stored at the elevated temperature condition (control samples at ambient). The lactose only samples served as baseline data for the HPLC analysis. […]

[5] = listed as ethane-1,2-disulfonate salt
[6] = listed as hydrochloride salt, hydrochloride

## COc1cc2c(cc1OC)-c1c/c(=N\c3c(C)cc(C)cc3C)n(CCNC(N)=O)c(=O)n1CC2 [Ethane-1,2-disulfonate, RPL554 ethane-1,2-disulfonate]
[1]; [5]
  Mass of salt (μg) dissolved after 2 hours, Average: 28.0 µg
  Mass of salt (μg) dissolved after 2 hours, Test 1: 21.1 µg
  Mass of salt (μg) dissolved after 2 hours, Test 2: 34.9 µg
[2]; [5]
  Behaviour to humidity: reversible adsorption and desorption over the humidity range with no hysteresis
  water adsorbed: up to 5 mole equivalents
[2]; to 50% humidity
  water uptake: 4 mole equivalents

## COc1cc2c(cc1OC)-c1c/c(=N\c3c(C)cc(C)cc3C)n(CCNC(N)=O)c(=O)n1CC2 [Hydrochloride, RPL554 hydrochloride]
[3]; below the melt endotherm
  form change by thermal manipulation: No form change was detected
[3]; hydrochloride
  Thermal cycle: Stable form
[1]; [6]
  Mass of salt (μg) dissolved after 2 hours, Average: 35.6 µg
  Mass of salt (μg) dissolved after 2 hours, Test 1: 31.7 µg
  Mass of salt (μg) dissolved after 2 hours, Test 2: 39.4 µg
[2]; [6]
  Behaviour to humidity: reversible adsorption and desorption over the humidity range with no hysteresis
  water adsorbed: up to 2 mole equivalents

## COc1cc2c(cc1OC)-c1c/c(=N\c3c(C)cc(C)cc3C)n(CCNC(N)=O)c(=O)n1CC2 [Sulfate, RPL554 sulfate]
[1]; 2 hour experiments
  dissolution compared with free base / other salts: higher dissolution than the rest of the salts
[1]; 24 hours experiment
  dissolution behaviour over 24 hours: did start to precipitate slowly but still remained highly supersaturated even after 24 hrs
[1]; nominal start pH 7, listed as sulfate salt
  maximum pH change (decrease) during dissolution: about 0.15 pH units
[1]; listed as sulfate salt
  Mass of salt (μg) dissolved after 2 hours, Average: 6205 µg
  Mass of salt (μg) dissolved after 2 hours, Test 1: 5910 µg
  Mass of salt (μg) dissolved after 2 hours, Test 2: 6500 µg
[4]
  peak area of the RPL554, % of the total areas: 82%
